In publication PMC11062899, “De novo development of small cyclic peptides that are orally bioavailable” (Nature Chemical Biology, 2023):
Values joined by “and” are separate entries in the source; they are usually repeats but may differ in a detail not shown here. Identical values can stand only once. One block for each compound: values may come before it.

Assays:
[1] = Passive artificial membrane permeability (PAMPA); conditions: for PAMPA permeability: % permeability: 50 μM, 12–18 h, acceptor concentration relative to equilibrium; for Papp at 50 μM / Permeability% Average / Permeability% R1 / Permeability% R3: PAMPA; for Papp at 50 μM: pH 7.4; for Permeability% Average: average of R1-R3; for Permeability% R1: replicate R1; for Permeability% R1 / Permeability% R3: TIC of top well sample relative to sample at theoretical equilibrium; for Permeability% R3: replicate R3
[2] = target: T1, porcine pepsin (Sus scrofa, UniProt P00791); assay: Peptide stability in simulated gastric fluid (SGF); format: in vitro ADME; conditions: for SGF stability, Residual peptide Average / SGF stability, Residual peptide: after 8 h vs 0 h (TIC); for SGF stability, Residual peptide Average: average of R1-R3; for SGF stability, Residual peptide: single replicates R1-R3; for remaining at 8 h: simulated gi fluid, 37 °C, pH 1.2, read-out: Proteolytic stability: SGF (8 h) % remaining
T1 construct: 0.32 g of porcine pepsin (Sigma-Aldrich, P7125) was dissolved under gentle agitation; purchased Sigma-Aldrich P7125
T1 sequence (P00791 60-385): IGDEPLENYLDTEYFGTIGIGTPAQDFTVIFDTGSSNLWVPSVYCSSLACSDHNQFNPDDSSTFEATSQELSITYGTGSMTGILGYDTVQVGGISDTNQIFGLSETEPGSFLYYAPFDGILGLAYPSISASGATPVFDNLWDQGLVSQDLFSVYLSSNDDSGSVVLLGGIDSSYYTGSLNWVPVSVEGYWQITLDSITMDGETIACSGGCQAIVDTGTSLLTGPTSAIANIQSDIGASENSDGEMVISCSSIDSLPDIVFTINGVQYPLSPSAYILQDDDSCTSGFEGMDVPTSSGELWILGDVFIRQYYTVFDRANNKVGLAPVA
How it was run: (§1)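 Peptide from a 1 mM DMSO stock was added to fluid pre-warmed at 37 °C. SGF was pH 1.2 NaCl with porcine pepsin (0.32 g per 100 ml), and SIF was pH 6.8 potassium phosphate with porcine pancreatin (1 g per 100 ml). Supernatant peptide was quantified by LC–MS, with residual expressed as T1/T0.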

[3] = target: human α-thrombin (Homo sapiens, UniProt P00734); assay: Protease inhibition, Ki for human α-thrombin (fluorogenic substrate Z-Gly-Gly-Arg-AMC); format: biochemical; conditions: replicates R1-R3
How it was run: (§2)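 Inhibition was measured as AMC fluorescence from 50 μM substrate, monitored for 30 min at 25 °C, relative to a peptide-free control. Human and rat enzymes were present at 2 nM and 3 nM final, respectively, in 50 mM Tris-HCl pH 7.4, 150 mM NaCl, 10 mM MgCl2, 1 mM CaCl2. Ki derives from fitted IC50 via Cheng–Prusoff.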

[4] = target: T2, rat α-thrombin (Rattus norvegicus, UniProt P18292); assay: Protease inhibition, Ki for rat α-thrombin (fluorogenic substrate Z-Gly-Gly-Arg-AMC); format: biochemical; conditions: replicates R1-R3
T2 construct: rat α-thrombin (Molecular Innovations) were used at final concentrations of 2 nM and 3 nM; purchased Molecular Innovations
How it was run: as §2

[5] = Metabolic stability in rat liver microsomes (RLMs); conditions: rat, microsomes
[6] = test system: porcine pancreatin; assay: Peptide stability in simulated intestinal fluid (SIF); format: in vitro ADME; conditions: after 8 h vs 0 h (TIC); for SIF stability, Residual peptide Average: average of R1-R3; for SIF stability, Residual peptide: single replicates R1-R3
How it was run: as §1

[7] = as above; format: in vitro ADME, porcine; conditions: simulated gi fluid; 8 h, 37 °C, pH 6.8; read-out: Proteolytic stability: SIF (8 h) % remaining
How it was run: as §1

[8] = peptide 1.33E+02 uM, slope of proteolytic substrate cleavage over time
[9] = CL (ul/min/mg protein) R1, RLM CL, replicate R1
[10] = CL (ul/min/mg protein) R2, RLM CL, replicate R2
[11] = CL (ul/min/mg protein) R3, RLM CL, replicate R3
[12] = Half Life (min) R1, RLM metabolic stability, replicate R1, 0-60 min
[13] = Half Life (min) R2, RLM metabolic stability, replicate R2, 0-60 min
[14] = Half Life (min) R3, RLM metabolic stability, replicate R3, 0-60 min
[15] = Metabolic stability: Half life T1/2 (min), RLMs, mean and SD, three measurements
[16] = Metabolic stability: RLM CL (ul/min/mg), RLMs, mean and SD, three measurements

PAMPA permeability: % permeability [1]: 2.5 ± 1.2%
Papp at 50 μM [1]: 0.151 ×10⁻⁶ cm/s
Permeability% Average [1]: 2.5%
Permeability% R1 [1]: 3.72%
Permeability% R3 [1]: 2.35%
SGF stability, Residual peptide Average [2]: 98.89
SGF stability, Residual peptide [2]: 99.89 and 99.67 and 97.09
remaining at 8 h [2]: 99 ± 2%
Human alpha thrombin inhibition, slope normalized to DMSO ([3]; peptide 1.02E-03 uM): 98.3 and 96.5 and 99.8
Human alpha thrombin inhibition, slope normalized to DMSO ([3]; peptide 1.04E+00 uM): 84.1 and 76.8 and 79.3
Human alpha thrombin inhibition, slope normalized to DMSO ([3]; peptide 1.27E-04 uM): 100.0 and 98.1 and 101.1
Human alpha thrombin inhibition, slope normalized to DMSO ([3]; peptide 1.30E-01 uM): 95.4 and 96.3 and 96.1
Human alpha thrombin inhibition, slope normalized to DMSO [3, 8]: 7.7 and 17.1 and 13.6
Human alpha thrombin inhibition, slope normalized to DMSO ([3]; peptide 1.63E-02 uM): 97.0 and 96.5 and 98.2
Human alpha thrombin inhibition, slope normalized to DMSO ([3]; peptide 1.67E+01 uM): 27.2 and 28.7 and 30.2
Human alpha thrombin inhibition, slope normalized to DMSO ([3]; peptide 2.03E-03 uM): 100.7 and 96.1 and 100.3
Human alpha thrombin inhibition, slope normalized to DMSO ([3]; peptide 2.08E+00 uM): 72.7 and 80.3 and 72.0
Human alpha thrombin inhibition, slope normalized to DMSO ([3]; peptide 2.54E-04 uM): 101.2 and 95.7 and 100.6
Human alpha thrombin inhibition, slope normalized to DMSO ([3]; peptide 2.60E-01 uM): 93.2 and 89.7 and 91.7
Human alpha thrombin inhibition, slope normalized to DMSO ([3]; peptide 3.18E-05 uM): 102.0 and 95.9 and 100.7
Human alpha thrombin inhibition, slope normalized to DMSO ([3]; peptide 3.26E-02 uM): 97.3 and 93.9 and 91.1
Human alpha thrombin inhibition, slope normalized to DMSO ([3]; peptide 3.33E+01 uM): 17.1 and 15.9 (2×)
Human alpha thrombin inhibition, slope normalized to DMSO ([3]; peptide 4.07E-03 uM): 99.1 and 96.8 and 105.4
Human alpha thrombin inhibition, slope normalized to DMSO ([3]; peptide 4.17E+00 uM): 57.2 and 53.3 and 58.0
Human alpha thrombin inhibition, slope normalized to DMSO ([3]; peptide 5.09E-04 uM): 99.5 and 108.3 and 102.0
Human alpha thrombin inhibition, slope normalized to DMSO ([3]; peptide 5.21E-01 uM): 89.3 and 86.3 and 89.6
Human alpha thrombin inhibition, slope normalized to DMSO ([3]; peptide 6.36E-05 uM): 101.1 and 95.4 and 95.5
Human alpha thrombin inhibition, slope normalized to DMSO ([3]; peptide 6.51E-02 uM): 97.1 and 92.8 and 96.9
Human alpha thrombin inhibition, slope normalized to DMSO ([3]; peptide 6.67E+01 uM): 14.5 and 13.5 and 16.4
Human alpha thrombin inhibition, slope normalized to DMSO ([3]; peptide 8.14E-03 uM): 99.5 and 100.5 and 98.6
Human alpha thrombin inhibition, slope normalized to DMSO ([3]; peptide 8.33E+00 uM): 48.2 and 47.8 and 48.5
Rat alpha thrombin inhibition, slope normalized to DMSO [4, 8]: 3.9 and 4.8 and 10.9
Rat alpha thrombin inhibition, slope normalized to DMSO ([4]; peptide 1.67E+01 uM): 9.1 and 8.9 and 16.0
Rat alpha thrombin inhibition, slope normalized to DMSO ([4]; peptide 2.08E+00 uM): 42.2 and 39.9 and 27.8
Rat alpha thrombin inhibition, slope normalized to DMSO ([4]; peptide 3.33E+01 uM): 5.4 and 4.9 and 14.0
Rat alpha thrombin inhibition, slope normalized to DMSO ([4]; peptide 4.17E+00 uM): 24.5 and 25.5 and 24.4
Rat alpha thrombin inhibition, slope normalized to DMSO ([4]; peptide 6.67E+01 uM): 4.0 and 4.6 and 11.6
Rat alpha thrombin inhibition, slope normalized to DMSO ([4]; peptide 8.33E+00 uM): 18.9 and 18.5 and 19.5
microsomal CLint [5, 9]: 48.3 µL/min/mg
microsomal CLint [5, 10]: 57.4 µL/min/mg
microsomal CLint [5, 11]: 60.2 µL/min/mg
half-life [5, 12]: 28.7 min
half-life [5, 13]: 24.2 min
half-life [5, 14]: 23 min
half-life [5, 15]: 25 ± 2 min
microsomal CLint [5, 16]: 55 ± 5 µL/min/mg
SIF stability, Residual peptide Average [6]: 91.64
SIF stability, Residual peptide [6]: 89.51 and 84.30 and 101.11
remaining at 8 h [7]: 92 ± 9%
SMILES: O=C1NCCSCc2cccc(n2)CSC[C@H](NC(=O)c2ccc(Cl)s2)C(=O)N[C@@H](CO)C(=O)NCc2cccc1c2 [compound 27]

PAMPA permeability: % permeability [1]: 30 ± 7%
Papp at 50 μM [1]: 2.29 ×10⁻⁶ cm/s
Permeability% Average [1]: 29.5%
Permeability% R1 [1]: 35.05%
Permeability% R3 [1]: 31.19%
SGF stability, Residual peptide Average [2]: 95.21
SGF stability, Residual peptide [2]: 100.04 and 92.83 and 92.76
remaining at 8 h [2]: 95 ± 4%
Human alpha thrombin inhibition, slope normalized to DMSO ([3]; peptide 1.02E-03 uM): 100.6 and 102.2 and 99.4
Human alpha thrombin inhibition, slope normalized to DMSO ([3]; peptide 1.04E+00 uM): 91.1 and 87.4 and 92.0
Human alpha thrombin inhibition, slope normalized to DMSO ([3]; peptide 1.27E-04 uM): 100.4 and 99.0 and 100.8
Human alpha thrombin inhibition, slope normalized to DMSO ([3]; peptide 1.30E-01 uM): 103.2 and 98.5 and 101.7
Human alpha thrombin inhibition, slope normalized to DMSO [3, 8]: 16.8 and 18.7 and 23.0
Human alpha thrombin inhibition, slope normalized to DMSO ([3]; peptide 1.63E-02 uM): 79.4 and 98.4 and 92.1
Human alpha thrombin inhibition, slope normalized to DMSO ([3]; peptide 1.67E+01 uM): 53.5 and 53.3 and 56.4
Human alpha thrombin inhibition, slope normalized to DMSO ([3]; peptide 2.03E-03 uM): 77.9 and 96.7 and 93.1
Human alpha thrombin inhibition, slope normalized to DMSO ([3]; peptide 2.08E+00 uM): 88.5 and 72.9 and 90.5
Human alpha thrombin inhibition, slope normalized to DMSO ([3]; peptide 2.54E-04 uM): 100.6 and 92.1 and 94.0
Human alpha thrombin inhibition, slope normalized to DMSO ([3]; peptide 2.60E-01 uM): 98.5 and 95.3 and 96.4
Human alpha thrombin inhibition, slope normalized to DMSO ([3]; peptide 3.18E-05 uM): 102.4 and 100.9 (2×)
Human alpha thrombin inhibition, slope normalized to DMSO ([3]; peptide 3.26E-02 uM): 99.5 and 98.1 and 103.6
Human alpha thrombin inhibition, slope normalized to DMSO ([3]; peptide 3.33E+01 uM): 35.9 and 38.0 and 41.6
Human alpha thrombin inhibition, slope normalized to DMSO ([3]; peptide 4.07E-03 uM): 103.3 and 98.8 and 95.5
Human alpha thrombin inhibition, slope normalized to DMSO ([3]; peptide 4.17E+00 uM): 79.3 and 79.5 and 79.0
Human alpha thrombin inhibition, slope normalized to DMSO ([3]; peptide 5.09E-04 uM): 102.1 and 100.7 and 91.1
Human alpha thrombin inhibition, slope normalized to DMSO ([3]; peptide 5.21E-01 uM): 99.8 and 93.6 and 95.9
Human alpha thrombin inhibition, slope normalized to DMSO ([3]; peptide 6.36E-05 uM): 102.4 and 110.3 and 102.0
Human alpha thrombin inhibition, slope normalized to DMSO ([3]; peptide 6.51E-02 uM): 102.8 and 95.7 and 101.3
Human alpha thrombin inhibition, slope normalized to DMSO ([3]; peptide 6.67E+01 uM): 23.2 and 24.0 and 29.0
Human alpha thrombin inhibition, slope normalized to DMSO ([3]; peptide 8.14E-03 uM): 99.1 and 108.8 and 87.5
Human alpha thrombin inhibition, slope normalized to DMSO ([3]; peptide 8.33E+00 uM): 72.2 and 85.5 and 69.3
Rat alpha thrombin inhibition, slope normalized to DMSO [4, 8]: 12.2 (2×) and 11.8
Rat alpha thrombin inhibition, slope normalized to DMSO ([4]; peptide 1.67E+01 uM): 38.3 and 37.3 and 38.4
Rat alpha thrombin inhibition, slope normalized to DMSO ([4]; peptide 2.08E+00 uM): 79.7 and 78.5 and 79.5
Rat alpha thrombin inhibition, slope normalized to DMSO ([4]; peptide 3.33E+01 uM): 24.3 and 23.3 and 23.8
Rat alpha thrombin inhibition, slope normalized to DMSO ([4]; peptide 4.17E+00 uM): 68.5 and 68.7 and 67.7
Rat alpha thrombin inhibition, slope normalized to DMSO ([4]; peptide 6.67E+01 uM): 14.7 and 14.3 and 13.4
Rat alpha thrombin inhibition, slope normalized to DMSO ([4]; peptide 8.33E+00 uM): 56.8 and 54.3 and 57.8
microsomal CLint [5, 9]: 81.1 µL/min/mg
microsomal CLint [5, 10]: 96.1 µL/min/mg
microsomal CLint [5, 11]: 78 µL/min/mg
half-life [5, 12]: 17.1 min
half-life [5, 13]: 14.4 min
half-life [5, 14]: 17.8 min
half-life [5, 15]: 16.4 ± 1.4 min
microsomal CLint [5, 16]: 85 ± 8 µL/min/mg
SIF stability, Residual peptide Average [6]: 94.01
SIF stability, Residual peptide [6]: 86.19 and 87.95 and 107.89
remaining at 8 h [7]: 94 ± 12%
SMILES: O=C(N[C@H]1CSCc2cccc(n2)CSCCNC(=O)[C@H](Cc2ccccn2)NC(=O)C2(CCCC2)NC1=O)c1ccc(Cl)s1 [compound 28]
